Results as given in article PMC4286194 (Biochemical Journal, 2015).

Legend:
[1] = test system: Bone-marrow-derived macrophages; assay: Markers of 'regulatory' macrophages (qPCR); type: cell-based, mouse; conditions: 3 μM bosutinib or 0.3 μM dasatinib 1 h, then LPS
Method: mRNA was extracted from cells using the MicroElute Total RNA kit following the manufacturers’ instructions (Omega Bio-Tek). cDNA was generated from 0.5 μg of total RNA using the iScript cDNA synthesis kit and quantified by quantitative real-time PCR (qPCR) using the SsoFast EvaGreen Supermix on a CFX384 real-time system (Bio-Rad Laboratories). The relative expression of each gene was calculated from CT values using the Pfaffl method and was normalized against the mRNA levels of housekeeping genes including 18S RNA and GAPDH. Results are reported relative to untreated control cells, which were set to 1.

PDGFRA = PDGFRA (Homo sapiens, UniProt P16234); assay: Kinase profiling; type: biochemical
SIK2[T96Q] = biological target: T1, SIK2[T96Q] (Homo sapiens, UniProt Q9H0K1, T96Q); type: biochemical; conditions: gatekeeper threonine mutated to glutamine
T1 construct: GST; made in house; host or cells: HEK293 cells

TESK1 = TESK1 (Homo sapiens, UniProt Q15569); assay: Kinase profiling; type: biochemical
TAO1 = biological target: T2, TAO1 (Homo sapiens, UniProt Q7L7X3); assay: Kinase profiling; type: biochemical
T2 sequence (Q7L7X3 1-1001): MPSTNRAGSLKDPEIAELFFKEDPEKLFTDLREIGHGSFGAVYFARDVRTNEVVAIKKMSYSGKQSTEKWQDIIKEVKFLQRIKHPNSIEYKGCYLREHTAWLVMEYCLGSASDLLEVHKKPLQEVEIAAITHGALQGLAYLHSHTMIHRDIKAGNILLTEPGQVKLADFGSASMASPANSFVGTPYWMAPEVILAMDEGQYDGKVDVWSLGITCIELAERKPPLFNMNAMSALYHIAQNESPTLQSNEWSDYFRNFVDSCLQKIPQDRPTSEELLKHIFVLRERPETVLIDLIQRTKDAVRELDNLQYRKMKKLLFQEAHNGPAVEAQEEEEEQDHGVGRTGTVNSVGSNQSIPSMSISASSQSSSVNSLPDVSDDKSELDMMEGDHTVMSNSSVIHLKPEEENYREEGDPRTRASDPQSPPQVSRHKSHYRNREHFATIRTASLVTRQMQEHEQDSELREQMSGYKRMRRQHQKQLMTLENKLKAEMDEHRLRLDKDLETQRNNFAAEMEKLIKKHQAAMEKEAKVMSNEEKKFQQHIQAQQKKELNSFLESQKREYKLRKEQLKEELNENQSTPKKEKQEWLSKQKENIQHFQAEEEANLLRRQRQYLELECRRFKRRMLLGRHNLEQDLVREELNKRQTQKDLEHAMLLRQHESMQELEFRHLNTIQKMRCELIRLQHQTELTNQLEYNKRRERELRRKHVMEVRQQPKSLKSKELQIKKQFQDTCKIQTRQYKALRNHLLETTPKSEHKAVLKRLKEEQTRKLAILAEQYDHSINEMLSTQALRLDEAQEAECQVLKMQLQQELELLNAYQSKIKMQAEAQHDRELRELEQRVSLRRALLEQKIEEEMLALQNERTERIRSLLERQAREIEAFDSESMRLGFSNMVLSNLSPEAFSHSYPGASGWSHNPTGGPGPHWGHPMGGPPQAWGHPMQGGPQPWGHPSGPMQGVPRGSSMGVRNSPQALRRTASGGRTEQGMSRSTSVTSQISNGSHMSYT

MPSK1 = MPSK1 (Homo sapiens, UniProt O75716); assay: Kinase profiling; type: biochemical
BRSK1 = biological target: T3, BRSK1 (Homo sapiens, UniProt Q8TDC3); assay: Kinase profiling; type: biochemical
T3 sequence (Q8TDC3 1-778): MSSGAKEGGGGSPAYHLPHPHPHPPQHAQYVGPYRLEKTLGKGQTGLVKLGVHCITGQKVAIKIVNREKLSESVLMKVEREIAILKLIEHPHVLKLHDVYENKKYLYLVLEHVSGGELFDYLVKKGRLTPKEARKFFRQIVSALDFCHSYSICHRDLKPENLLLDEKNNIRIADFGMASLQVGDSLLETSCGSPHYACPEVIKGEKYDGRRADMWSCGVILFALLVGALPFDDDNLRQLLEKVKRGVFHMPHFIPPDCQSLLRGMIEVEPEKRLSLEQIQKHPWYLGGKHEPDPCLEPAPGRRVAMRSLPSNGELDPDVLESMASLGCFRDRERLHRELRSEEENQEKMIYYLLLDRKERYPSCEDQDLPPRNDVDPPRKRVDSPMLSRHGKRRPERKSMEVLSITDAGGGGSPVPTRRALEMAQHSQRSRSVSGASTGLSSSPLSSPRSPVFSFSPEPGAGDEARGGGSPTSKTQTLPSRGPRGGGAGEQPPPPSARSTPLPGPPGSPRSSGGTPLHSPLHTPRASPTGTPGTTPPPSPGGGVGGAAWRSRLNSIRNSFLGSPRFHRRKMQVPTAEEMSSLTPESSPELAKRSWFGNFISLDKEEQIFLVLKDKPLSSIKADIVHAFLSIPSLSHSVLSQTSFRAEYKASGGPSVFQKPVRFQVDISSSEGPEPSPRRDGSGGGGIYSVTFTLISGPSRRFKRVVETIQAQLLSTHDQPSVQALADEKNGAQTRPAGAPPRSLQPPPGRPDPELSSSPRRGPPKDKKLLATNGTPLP

PKD1 = PKD1 (Homo sapiens, UniProt Q15139); assay: Kinase profiling; type: biochemical
TGFBR1 = TGFBR1 (Homo sapiens, UniProt P36897); assay: Kinase profiling; type: biochemical
EPH-B4 = EPH-B4 (Homo sapiens, UniProt P54760); assay: Kinase profiling; type: biochemical
YES1 = YES1 (Homo sapiens, UniProt P07947); assay: Kinase profiling; type: biochemical
SIK3 = biological target: T4, SIK3 (Homo sapiens, UniProt Q9Y2K2); assay: Kinase assay, IC50 curve; type: biochemical; conditions: read-out: IC50 against SIK3
T4 construct: GST; made in house; host or cells: HEK293 cells

Src = Src (Homo sapiens, UniProt P12931); assay: Kinase profiling; type: biochemical
PHK = PHK (Homo sapiens, UniProt Q16816); assay: Kinase profiling; type: biochemical

Sequence of PDGFRA (P16234 24-1089): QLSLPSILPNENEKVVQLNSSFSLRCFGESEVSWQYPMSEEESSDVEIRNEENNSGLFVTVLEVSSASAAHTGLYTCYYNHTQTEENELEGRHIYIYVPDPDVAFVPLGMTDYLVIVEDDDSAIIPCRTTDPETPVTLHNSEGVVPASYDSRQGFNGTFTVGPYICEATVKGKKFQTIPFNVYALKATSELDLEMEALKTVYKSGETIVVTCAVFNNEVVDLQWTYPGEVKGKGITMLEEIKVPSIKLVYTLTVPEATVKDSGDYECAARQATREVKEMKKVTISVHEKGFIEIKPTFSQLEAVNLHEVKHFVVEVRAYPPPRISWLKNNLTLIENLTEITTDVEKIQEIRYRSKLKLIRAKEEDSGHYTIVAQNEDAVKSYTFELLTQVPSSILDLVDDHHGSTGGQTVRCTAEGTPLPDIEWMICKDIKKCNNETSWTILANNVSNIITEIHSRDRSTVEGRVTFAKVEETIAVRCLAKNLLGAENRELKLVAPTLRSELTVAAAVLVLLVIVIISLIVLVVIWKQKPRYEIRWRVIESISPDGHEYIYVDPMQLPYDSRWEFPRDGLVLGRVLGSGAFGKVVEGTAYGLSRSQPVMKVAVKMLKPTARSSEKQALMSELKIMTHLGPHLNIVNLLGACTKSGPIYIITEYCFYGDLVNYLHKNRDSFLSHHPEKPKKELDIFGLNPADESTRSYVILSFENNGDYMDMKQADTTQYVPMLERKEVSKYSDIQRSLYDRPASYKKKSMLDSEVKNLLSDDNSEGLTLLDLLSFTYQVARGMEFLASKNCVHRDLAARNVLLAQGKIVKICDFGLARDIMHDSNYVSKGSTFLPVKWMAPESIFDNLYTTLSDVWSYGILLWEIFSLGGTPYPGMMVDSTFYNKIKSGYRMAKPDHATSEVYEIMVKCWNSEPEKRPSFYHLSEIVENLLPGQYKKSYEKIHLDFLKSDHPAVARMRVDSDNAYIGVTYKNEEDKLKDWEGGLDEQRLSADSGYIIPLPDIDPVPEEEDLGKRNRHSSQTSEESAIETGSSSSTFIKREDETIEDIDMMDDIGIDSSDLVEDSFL
Sequence of MPSK1 (O75716 whole entry): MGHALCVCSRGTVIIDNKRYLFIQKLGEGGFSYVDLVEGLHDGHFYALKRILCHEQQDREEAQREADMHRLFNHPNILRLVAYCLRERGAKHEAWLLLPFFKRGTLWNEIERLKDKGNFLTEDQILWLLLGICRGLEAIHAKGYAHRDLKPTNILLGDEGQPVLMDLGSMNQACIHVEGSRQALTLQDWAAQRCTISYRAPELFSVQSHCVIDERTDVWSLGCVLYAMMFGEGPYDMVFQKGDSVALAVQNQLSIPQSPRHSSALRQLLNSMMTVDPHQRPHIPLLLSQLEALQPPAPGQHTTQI
Sequence of TESK1 (Q15569 whole entry): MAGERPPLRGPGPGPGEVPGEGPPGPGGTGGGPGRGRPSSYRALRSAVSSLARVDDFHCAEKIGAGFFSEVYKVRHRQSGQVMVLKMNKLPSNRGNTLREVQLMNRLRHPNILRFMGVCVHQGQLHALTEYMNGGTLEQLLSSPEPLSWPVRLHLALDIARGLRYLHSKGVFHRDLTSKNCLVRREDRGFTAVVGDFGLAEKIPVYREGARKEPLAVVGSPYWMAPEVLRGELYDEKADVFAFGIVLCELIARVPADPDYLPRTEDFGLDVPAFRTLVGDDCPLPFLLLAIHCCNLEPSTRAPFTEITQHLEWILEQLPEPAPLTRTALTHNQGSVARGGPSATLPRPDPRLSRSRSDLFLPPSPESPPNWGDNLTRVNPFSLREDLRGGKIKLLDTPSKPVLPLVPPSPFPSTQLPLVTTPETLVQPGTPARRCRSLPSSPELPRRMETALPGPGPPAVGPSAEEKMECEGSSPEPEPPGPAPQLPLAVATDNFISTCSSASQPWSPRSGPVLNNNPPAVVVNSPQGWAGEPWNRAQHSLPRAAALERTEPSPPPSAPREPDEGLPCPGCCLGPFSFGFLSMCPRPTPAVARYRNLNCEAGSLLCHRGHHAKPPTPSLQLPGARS
Sequence of Src (P12931 whole entry): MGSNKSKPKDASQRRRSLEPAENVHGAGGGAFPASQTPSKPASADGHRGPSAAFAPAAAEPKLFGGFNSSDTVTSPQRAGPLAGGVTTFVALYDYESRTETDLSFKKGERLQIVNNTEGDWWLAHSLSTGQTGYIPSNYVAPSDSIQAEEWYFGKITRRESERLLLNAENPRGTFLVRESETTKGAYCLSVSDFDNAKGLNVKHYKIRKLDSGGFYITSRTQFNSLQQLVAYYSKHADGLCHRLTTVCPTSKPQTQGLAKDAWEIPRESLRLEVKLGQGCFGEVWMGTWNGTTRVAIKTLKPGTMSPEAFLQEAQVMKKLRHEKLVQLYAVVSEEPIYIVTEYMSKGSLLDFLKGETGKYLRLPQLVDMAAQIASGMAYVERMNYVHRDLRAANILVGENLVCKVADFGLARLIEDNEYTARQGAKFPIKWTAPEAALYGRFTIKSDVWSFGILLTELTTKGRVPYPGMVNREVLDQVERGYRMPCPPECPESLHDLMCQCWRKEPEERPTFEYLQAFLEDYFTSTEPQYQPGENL
Sequence of YES1 (P07947 whole entry): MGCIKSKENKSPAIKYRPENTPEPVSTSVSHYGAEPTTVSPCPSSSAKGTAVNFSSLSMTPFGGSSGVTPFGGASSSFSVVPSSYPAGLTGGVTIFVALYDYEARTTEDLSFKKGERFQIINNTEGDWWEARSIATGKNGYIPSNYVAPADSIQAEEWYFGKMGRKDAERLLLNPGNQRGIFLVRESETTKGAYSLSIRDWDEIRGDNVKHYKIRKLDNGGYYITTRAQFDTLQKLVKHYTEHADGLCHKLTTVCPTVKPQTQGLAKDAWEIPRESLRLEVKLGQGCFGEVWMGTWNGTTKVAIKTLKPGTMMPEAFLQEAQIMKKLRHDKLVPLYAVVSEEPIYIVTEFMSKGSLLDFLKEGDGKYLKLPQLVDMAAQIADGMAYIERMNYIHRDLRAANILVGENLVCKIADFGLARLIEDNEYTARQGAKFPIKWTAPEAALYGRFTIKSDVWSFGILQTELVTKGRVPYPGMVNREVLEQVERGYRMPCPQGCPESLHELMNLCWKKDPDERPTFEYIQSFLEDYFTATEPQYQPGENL
T1 sequence (Q9H0K1 whole entry T96Q): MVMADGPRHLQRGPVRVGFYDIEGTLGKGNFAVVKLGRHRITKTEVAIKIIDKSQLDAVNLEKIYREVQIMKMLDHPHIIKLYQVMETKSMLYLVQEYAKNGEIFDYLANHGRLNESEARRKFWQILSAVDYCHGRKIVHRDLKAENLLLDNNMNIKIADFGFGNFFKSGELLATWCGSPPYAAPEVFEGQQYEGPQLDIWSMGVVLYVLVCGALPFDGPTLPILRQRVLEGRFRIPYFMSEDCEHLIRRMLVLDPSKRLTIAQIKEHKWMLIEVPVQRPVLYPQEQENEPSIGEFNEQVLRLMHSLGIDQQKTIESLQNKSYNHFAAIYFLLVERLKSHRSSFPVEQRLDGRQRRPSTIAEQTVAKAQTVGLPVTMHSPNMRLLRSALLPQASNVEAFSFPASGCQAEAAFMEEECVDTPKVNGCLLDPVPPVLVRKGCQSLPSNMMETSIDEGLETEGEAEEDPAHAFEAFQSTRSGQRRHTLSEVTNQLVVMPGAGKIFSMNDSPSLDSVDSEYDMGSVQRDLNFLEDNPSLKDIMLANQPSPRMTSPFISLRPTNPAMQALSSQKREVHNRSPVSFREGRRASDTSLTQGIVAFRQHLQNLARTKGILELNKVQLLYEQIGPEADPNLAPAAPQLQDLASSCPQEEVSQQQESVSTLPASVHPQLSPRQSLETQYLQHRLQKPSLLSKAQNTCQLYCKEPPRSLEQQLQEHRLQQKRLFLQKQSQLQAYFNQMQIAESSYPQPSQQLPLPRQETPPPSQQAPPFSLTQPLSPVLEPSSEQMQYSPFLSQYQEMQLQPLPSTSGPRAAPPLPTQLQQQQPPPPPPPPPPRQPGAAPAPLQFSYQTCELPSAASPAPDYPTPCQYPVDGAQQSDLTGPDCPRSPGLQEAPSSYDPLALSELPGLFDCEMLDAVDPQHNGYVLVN
Sequence of EPH-B4 (P54760 16-987): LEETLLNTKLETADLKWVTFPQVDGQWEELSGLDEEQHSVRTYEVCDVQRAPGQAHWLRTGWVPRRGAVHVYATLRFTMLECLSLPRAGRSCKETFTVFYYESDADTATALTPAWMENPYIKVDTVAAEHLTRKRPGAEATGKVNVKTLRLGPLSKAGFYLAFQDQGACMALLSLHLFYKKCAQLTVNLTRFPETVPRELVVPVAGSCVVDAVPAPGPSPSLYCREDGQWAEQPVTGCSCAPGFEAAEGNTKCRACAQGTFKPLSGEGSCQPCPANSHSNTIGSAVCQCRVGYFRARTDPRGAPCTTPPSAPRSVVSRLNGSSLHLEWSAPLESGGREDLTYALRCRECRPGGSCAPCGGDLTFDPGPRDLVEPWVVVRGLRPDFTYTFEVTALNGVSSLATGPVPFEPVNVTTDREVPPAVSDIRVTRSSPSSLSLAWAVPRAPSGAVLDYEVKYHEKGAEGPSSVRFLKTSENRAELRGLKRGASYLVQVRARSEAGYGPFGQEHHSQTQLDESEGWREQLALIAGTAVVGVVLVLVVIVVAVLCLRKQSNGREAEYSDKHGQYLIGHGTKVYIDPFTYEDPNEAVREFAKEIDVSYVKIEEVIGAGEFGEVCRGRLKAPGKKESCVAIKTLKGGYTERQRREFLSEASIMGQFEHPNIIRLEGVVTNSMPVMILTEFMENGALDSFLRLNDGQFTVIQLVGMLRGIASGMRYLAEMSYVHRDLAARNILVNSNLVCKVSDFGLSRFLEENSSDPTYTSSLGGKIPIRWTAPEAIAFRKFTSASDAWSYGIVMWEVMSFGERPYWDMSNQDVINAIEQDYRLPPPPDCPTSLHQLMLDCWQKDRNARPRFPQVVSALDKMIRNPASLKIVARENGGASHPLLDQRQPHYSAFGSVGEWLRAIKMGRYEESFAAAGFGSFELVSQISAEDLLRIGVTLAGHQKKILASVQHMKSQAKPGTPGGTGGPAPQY

Row | Structure (SMILES) | Expression of SPHK1, LIGHT and arginase 1 [1] | remaining activity at 0.1 µM (PDGFRA) [%] | Loss of sensitivity of SIK2[T96Q] versus wild-type (SIK2[T96Q]) | remaining activity at 0.1 µM (TESK1) [%] | remaining activity at 1 µM (TESK1) [%] | remaining activity at 1 µM (TAO1) [%] | remaining activity at 0.1 µM (MPSK1) [%] | remaining activity at 1 µM (MPSK1) [%] | remaining activity at 0.1 µM (BRSK1) [%] | remaining activity at 1 µM (BRSK1) [%] | also measured
1 | Cc1nc(Nc2ncc(C(=O)Nc3c(C)cccc3Cl)s2)cc(N2CCN(CCO)CC2)n1 [Dasatinib] | elevated | 6 ± 1 | 100–1000 fold | 50 ± 3 | 8 | 95 ± 7 | 101 ± 5 | 123 ± 1 | 126 | 123 ± 1 | remaining activity at 0.1 µM (TAO1; 0.1 µM): 120 ± 9%
2 | COc1cc(Nc2c(C#N)cnc3cc(OCCCN4CCN(C)CC4)c(OC)cc23)c(Cl)cc1Cl [Bosutinib, bosutinib] | elevated | 96 ± 1 | 100–1000 fold | 82 ± 15 | 61 ± 2 | 102 ± 7 | 117 ± 15 | 110 ± 11 | 101 ± 1 | 112 ± 5 | remaining activity at 0.1 µM (PKD1): 89 ± 2%; remaining activity at 0.1 µM (TGFBR1; 0.1 µM): 87 ± 14%; remaining activity at 1 µM (TGFBR1; 1 µM): 101 ± 6%; remaining activity at 1 µM (PDGFRA; 1 µM): 79%; remaining activity at 0.1 µM (EPH-B4; 0.1 µM): 10%; remaining activity at 1 µM (EPH-B4; 1 µM): 2%; remaining activity at 0.1 µM (YES1; 0.1 µM): 2 ± 1%; remaining activity at 1 µM (YES1; 1 µM): 1%; IC50 (SIK3): 18 nM; remaining activity at 0.1 µM (Src; 0.1 µM): 1%; remaining activity at 1 µM (Src; 1 µM): 1%; remaining activity at 0.1 µM (PHK; 0.1 µM): 55%; remaining activity at 1 µM (PHK; 1 µM): 12%
